For 24 compounds, melting point and Ki results are on record in patent US20030060498A1, “5-arylsulfonyl indoles useful for treating disease” (priority 2001, published 2003).

Data set [1] has as its target T1, cloned human 5-HT6 receptor (Homo sapiens, UniProt P50406).
T1 construct: host or cells: HeLa cells (G-418 selection); membrane preparation
As to the kind of experiment: 5-HT6 receptor binding assay ([3H]-LSD radioligand, SPA beads). As to the method: 5-HT6 Receport Binding Assay
Growth of Cells and Membrane Preparation:
Hela cells containing the cloned human 5-HT6 receptor were acquired from Dr. David R. Sibley's laboratory in National Institute of Health (see Sibley, D. R., J. Neurochemistry, 66, 47-56, 1996). Cells were grown in high glucose Dulbecco's modified Eagle's medium, supplemented with L-glutamine, 0.5% sodium pyruvate, 0.3% penicillin-streptomycin, 0.025% G-418 and 5% Gibco fetal bovine serum and then were harvested, when confluent, in cold phosphate buffered saline.
Harvested intact cells were washed once in cold phosphate-buffered saline. The cells were pelleted and resuspended in 100 ml of cold 50 mM Tris, 5 mM EDTA and 5 mM EGTA, pH 7.4. Homogenization was with a Vir Tishear generator, 4 cycles for 30 seconds each at setting 50. The homogenized cells were centrifuged at […] for 10 minutes and the supernatant was removed. The pellet was resuspended in 100 ml of the above buffer and rehomogenized for 2 cycles. The rehomogenized cells were then centrifuged at […] for 10 minutes and the supernatant was removed. The combined supernatant (200ml) was centrifuged at 23,000 RPM (80,000×g) for 1 hour in a Beckman Rotor (42.1 Ti). The membrane pellet was resuspended in […] of assay buffer containing HEPES 20 mM, MgCl2 10 mM, NaCl 150 mM, EDTA 1 mM, pH 7.4 and stored frozen in aliqouts at −70° C.
5-HT6 Receptor Binding Assay
The radioligand binding assay used [^3H]-lysergic acid diethylamide (LSD). The assay was carried out in Wallac 96-well sample plates by the addition of 11 μl of the test sample at the appropriate dilution (the assay employed 11 serial concentrations of samples run in duplicate), 11 μl of radioligand, and 178 μl of a washed mixture of WGA-coated SPA beads and membranes in binding buffer. The plates were shaken for about 5 minutes and then incubated at room temperature for 1 hour. The plates were then loaded into counting cassettes and counted in a Wallac MicroBeta Trilux scintillation counter.
Binding Constant (Ki) Determination
Eleven serial dilutions of test compounds were distributed to assay plates using the PE/Cetus Pro/Pette pipetter. These dilutions were, followed by radioligand and the bead-membrane mixture prepared as described above. The specifically bound cpm obtained were fit to a one-site binding model using GraphPad Prism ver. 3.0. Estimated IC50 values were converted to Ki values using the Cheng-Prusoff equation (Cheng, Y. C. et al., Biochem. Pharmacol., 22, 3099-108, 1973).

Structures can show the parent of a compound that is named as a salt. Where two headings read alike, the source gives them in different places.

T1 sequence (P50406 whole entry): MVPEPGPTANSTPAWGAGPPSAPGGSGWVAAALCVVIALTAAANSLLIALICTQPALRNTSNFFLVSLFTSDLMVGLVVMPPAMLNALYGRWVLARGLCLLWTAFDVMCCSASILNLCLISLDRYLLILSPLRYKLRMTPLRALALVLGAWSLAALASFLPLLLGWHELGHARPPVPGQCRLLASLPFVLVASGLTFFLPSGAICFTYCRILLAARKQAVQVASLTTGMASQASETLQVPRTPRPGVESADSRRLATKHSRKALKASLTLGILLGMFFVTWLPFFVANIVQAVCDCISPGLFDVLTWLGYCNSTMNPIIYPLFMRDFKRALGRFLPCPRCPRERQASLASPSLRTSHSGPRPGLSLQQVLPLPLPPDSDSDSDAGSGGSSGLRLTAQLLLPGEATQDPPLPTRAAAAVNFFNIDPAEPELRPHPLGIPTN

On to `CNCCc1cn(C)c2ccc(S(=O)(=O)c3ccc(C)cc3)cc12.Cl` [Example 8, N-methyl-2-{1-methyl-5-[(4-methylphenyl)sulfonyl]-1H-indol-3-yl}ethanamine hydrochloride], for which the melting point is 275 to 277.6 °C. In addition, the affinity in data set [1] corresponds to a Ki of 7.6 nM.

The compound `CNCCc1c(C)n(C)c2ccc(S(=O)(=O)c3cc(F)cc(F)c3)cc12.Cl` [Example 20, 2-{5-[(3,5-difluorophenyl)sulfonyl]-1,2-dimethyl-1H-indol-3-yl}-N-methylethanamine Hydrochloride] showed a melting point of 253.5 to 257.8 °C. The compound further returned a Ki in data set [1] of 4.6 nM.

For `CNCCc1c(C)n(C)c2ccc(S(=O)(=O)c3cccc(OC)c3)cc12.Cl` [Example 17, 2-{5-[(3-methoxyphenyl)sulfonyl]-1,2-dimethyl-1H-indol-3-yl}-N-methylethanamine Hydrochloride], the melting point fell in the range of 192.4 to 196 °C. The compound further had a Ki in data set [1] of 10 nM.

`CNCCc1c(C)n(C)c2ccc(S(=O)(=O)c3ccccc3)cc12.Cl` [Example 5, 2-[1,2-dimethyl-5-(phenylsulfonyl)-1H-indol-3-yl]-N-methylethanamine Hydrochloride] had a melting point of 266.8 to 268.2 °C. The Ki in data set [1] came to 9 nM. Taken in the same sequence, the figures for `Cc1c(CCN)c2cc(S(=O)(=O)c3ccc(C(F)(F)F)cc3)ccc2n1C.Cl` [Example 13, 2-(1,2-dimethyl-5-{[4-(trifluoromethyl)phenyl]sulfonyl}-1H-indol-3-yl)ethanamine Hydrochloride] were > 280 °C and 36 nM.

Turning to `Cc1ccc(S(=O)(=O)c2ccc3c(c2)c(CCN)c(C)n3C)cc1.Cl` [Example 10, 2-{1,2-dimethyl-5-[(4-methylphenyl)sulfonyl]-1H-indol-3-yl}ethanamine Hydrochloride], the melting point lay within 168 to 172 °C. For the same compound, the Ki in data set [1] stood at 22 nM. Taken in the same sequence, the figures for `Cc1c(CCN)c2cc(S(=O)(=O)c3ccccc3)ccc2n1C.Cl` [Example 4, 2-[1,2-dimethyl-5-(phenylsulfonyl)-1H-indol-3-yl]ethanamine Hydrochloride] were 155 to 158.3 °C and 4 nM.

`CNCCc1c(C)n(C)c2ccc(S(=O)(=O)c3ccc(C(F)(F)F)cc3)cc12.Cl` [Example 14, 2-(1,2-dimethyl-5-{[4-(trifluoromethyl)phenyl]sulfonyl}-1H-indol-3-yl)-N-methylethanamine Hydrochloride] showed a melting point of 189.1 to 193.7 °C. For the same compound, in data set [1], the Ki stood at 18 nM. Taken in the same sequence, the figures for `Cl.Cn1cc(CCN)c2cc(S(=O)(=O)c3ccccc3)ccc21` [Example 1, 2-[1-methyl-5-(phenylsulfonyl)-1H-indol-3-yl]ethanamine Hydrochloride] were 285.3 to 292 °C and 1.5 nM.

In turn, `Cc1c(CCN(C)C)c2cc(S(=O)(=O)c3ccccc3)ccc2n1C` [Example 6, 2-[1,2-dimethyl-5-(phenylsulfonyl)-1H-indol-3-yl]-N,N-dimethylethanamine] returned a melting point of 169.6 to 171.9 °C. For the same compound, in data set [1], affinity was put at a Ki of 1.8 nM.

The compound `Cc1[nH]c2ccc(S(=O)(=O)c3cccc4ccccc34)cc2c1CCN` [Example 21, 2-[2-methyl-5-(1-naphthylsulfonyl)-1H-indol-3-yl]ethanamine Hydrochloride] had a Ki in data set [1] of 0.9 nM. For the compound `Cc1c(CCN)c2cc(S(=O)(=O)c3cccc4ccccc34)ccc2n1C.Cl` [Example 22, 2-[1,2-dimethyl-5-(1-naphthylsulfonyl)-1H-indol-3-yl]ethanamine Hydrochloride], the melting point is > 175 °C (dec.). Besides, the Ki in data set [1] stood at 3.1 nM. As for `Cc1[nH]c2ccc(S(=O)(=O)c3ccc(C(F)(F)F)cc3)cc2c1CCN.Cl` [Example 12, 2-(2-methyl-5-{[4-(trifluoromethyl)phenyl]sulfonyl}-1H-indol-3-yl)ethanamine Hydrochloride], the melting point was > 275 °C. In data set [1] ([3H]-LSD, membranes of Hela cells containing the cloned human 5-HT6 receptor, IC50 converted by Cheng-Prusoff, average, read-out: Ki), the Ki is 146 nM. As to `CNCCc1c(C)n(C)c2ccc(S(=O)(=O)c3ccc(C)cc3)cc12.Cl` [Example 11, 2-{1,2-dimethyl-5-[(4-methylphenyl)sulfonyl]-1H-indol-3-yl}-N-methylethanamine Hydrochloride], the melting point was in the range of 259.7 to 262.3 °C. The affinity in data set [1], expressed as Ki, was 15 nM. Taken in the same sequence, the figures for `COc1cccc(S(=O)(=O)c2ccc3c(c2)c(CCN)c(C)n3C)c1.Cl` [Example 16, 2-{5-[(3-methoxyphenyl)sulfonyl]-1,2-dimethyl-1H-indol-3-yl}ethanamine Hydrochloride] were 269.5 to 272.4 °C and 3.4 nM. Taken in the same sequence, the figures for `Cc1ccc(S(=O)(=O)c2ccc3[nH]c(C)c(CCN)c3c2)cc1.Cl` [Example 9, 2-{2-methyl-5-[(4-methylphenyl)sulfonyl]-1H-indol-3-yl}ethanamine Hydrochloride] were > 275 °C and 308 nM. Taken in the same sequence, the figures for `Cc1[nH]c2ccc(S(=O)(=O)c3ccccc3)cc2c1CCN.Cl` [Example 2, 2-[2-methyl-5-(phenylsulfonyl)-1H-indol-3-yl]ethanamine Hydrochloride] were > 280 °C and 38 nM.

Turning to `Cc1[nH]c2ccc(S(=O)(=O)c3cc(F)cc(F)c3)cc2c1CCN.Cl` [Example 18, 2-{5-[(3,5-difluorophenyl)sulfonyl]-2-methyl-1H-indol-3-yl}ethanamine Hydrochloride], the melting point is > 280 °C. Affinity in data set [1] was put at a Ki of 66 nM.

`CNCCc1c(C)n(C)c2ccc(S(=O)(=O)c3cccc4ccccc34)cc12.Cl`: the melting point was > 141 °C (dec.). As to `COc1cccc(S(=O)(=O)c2ccc3[nH]c(C)c(CCN)c3c2)c1.Cl` [Example 15, 2-{5-[(3-methoxyphenyl)sulfonyl]-2-methyl-1H-indol-3-yl}ethanamine Hydrochloride], the melting point lay within 300 to 302 °C. This compound also had a Ki in data set [1] of 209 nM.

As for `Cc1[nH]c2ccc(S(=O)(=O)c3cccc4ccccc34)cc2c1CCN` (as salt: hydrochloride) [Example 21, 2-[2-methyl-5-(1-naphthylsulfonyl)-1H-indol-3-yl]ethanamine Hydrochloride], the melting point was > 280 °C.

`Cc1ccc(S(=O)(=O)c2ccc3c(c2)c(CCN)cn3C)cc1.Cl` [Example 7, 2-{1-methyl-5-[(4-methylphenyl)sulfonyl]-1H-indol-3-yl}ethanamine Hydrochloride]: the melting point fell in the range of 186.3 to 190.2 °C. Also, in data set [1], the inhibition constant Ki was determined as 3.3 nM. Taken in the same sequence, the figures for `CNCCc1c(C)[nH]c2ccc(S(=O)(=O)c3ccccc3)cc12` [Example 3, N-methyl-2-[2-methyl-5-(phenylsulfonyl)-1H-indol-3-yl]ethanamine] were 164.6 to 166 °C and 37 nM.

The compound `Cc1c(CCN)c2cc(S(=O)(=O)c3cc(F)cc(F)c3)ccc2n1C.Cl` [Example 19, 2-{5-[(3,5-difluorophenyl)sulfonyl]-1,2-dimethyl-1H-indol-3-yl}ethanamine Hydrochloride] had a melting point of 288.6 to 290.5 °C. In addition, the affinity in data set [1] corresponds to a Ki of 5.6 nM.

In general, melting point refers to the temperature of the solid-liquid transition. Broadly, the Ki is a dissociation constant, usually derived from enzyme kinetics or from competition with a known ligand.
